Like-named read-outs stand apart in the source and are kept apart here. Blank lines part the entries; values can stand above or below the compound they belong to.
Columns and labels:
TAK1 = target: T1, TAK1 (Homo sapiens, UniProt O43318); assay: KiNativ in situ kinome profiling in HEKa, TAK1; format: binding; settings: intact HEKa, 1 hr treatment, clinically-achievable concentration
T1 sequence (O43318 1-606): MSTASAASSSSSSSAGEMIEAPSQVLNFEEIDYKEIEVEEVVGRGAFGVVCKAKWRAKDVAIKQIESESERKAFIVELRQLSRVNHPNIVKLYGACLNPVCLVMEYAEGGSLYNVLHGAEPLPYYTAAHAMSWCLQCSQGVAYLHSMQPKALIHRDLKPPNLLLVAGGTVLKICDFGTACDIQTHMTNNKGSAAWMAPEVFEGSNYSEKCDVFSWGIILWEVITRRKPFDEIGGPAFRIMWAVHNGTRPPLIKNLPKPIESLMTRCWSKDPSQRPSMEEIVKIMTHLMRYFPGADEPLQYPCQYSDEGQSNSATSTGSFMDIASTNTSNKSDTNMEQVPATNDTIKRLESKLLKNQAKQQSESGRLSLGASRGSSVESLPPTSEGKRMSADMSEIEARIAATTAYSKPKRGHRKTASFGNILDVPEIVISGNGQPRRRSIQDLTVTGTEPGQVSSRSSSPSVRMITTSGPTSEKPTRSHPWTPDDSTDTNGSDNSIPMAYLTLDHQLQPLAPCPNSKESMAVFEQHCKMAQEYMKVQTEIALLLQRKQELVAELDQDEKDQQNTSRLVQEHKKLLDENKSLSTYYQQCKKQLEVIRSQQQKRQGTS

[1] = tested on: sorafenib uptake in HEKa (OATs; SLC22A); assay: Inhibition of sorafenib uptake in HEKa by transporter inhibitors; format: cell-based, human; settings: OAT inhibitors 100 µM, sorafenib 1 µM, 15 min
[2] = tested on: Human primary keratinocytes (HEKa); assay: HEKa cell viability
HEKa = assay: In vitro transport assay: intracellular drug accumulation in HEKa; format: in vitro ADME, human; settings: for intracellular accumulation / transport in HEKa (in words): kinase inhibitors 1 µM, 5 min
[3] = tested on: A549, 7860, HepG2 and CHRF288-11 cell lines; assay: In vitro antitumor efficacy of sorafenib with or without probenecid; format: cell-based, human; settings: probenecid 500 µM, sorafenib 0.1 – 100 µM, 72 hours
[4] = tested on: sorafenib accumulation in MPEK; assay: Inhibition of sorafenib accumulation in MPEK by probenecid; format: cell-based, mouse; settings: probenecid 100 µM, sorafenib 1 µM, 15 min
[5] = Plasma pharmacokinetic study of sorafenib; format: in vivo, C57BL6 mice; settings: sorafenib 60 mg/kg oral, single agent, 0 to 6 hours
[6] = cited from earlier work
[7] = tested on: hair follicle growth in mice after depilation; assay: Wax-depilation hair follicle regrowth study; format: in vivo, C57BL6 mice; settings: twice daily oral

affinity for TAK1 in HEKa by in situ kinome profiling (in words) (TAK1): low affinity
SMILES: Cc1nc(Nc2ncc(C(=O)Nc3c(C)cccc3Cl)s2)cc(N2CCN(CCO)CC2)n1 [dasatinib]

SMILES: C[N+]1(C)CCOC(O)(c2ccc(-c3ccc(C4(O)C[N+](C)(C)CCO4)cc3)cc2)C1.[Br-].[Br-] (centres unmarked) [hemicholinum-3]
sensitivity of sorafenib uptake to inhibitor [1]: sensitivity of sorafenib uptake

affinity for TAK1 in HEKa by in situ kinome profiling (in words) (TAK1): high affinity
SMILES: CCN(CC)CCNC(=O)c1c(C)[nH]c(/C=C2\C(=O)Nc3ccc(F)cc32)c1C [sunitinib]
cell viability / cytotoxicity against HEKa (in words) [2]: induces cytotoxicity against HEKa

SMILES: Cc1ccc(NC(=O)c2ccc(CN3CCN(C)CC3)cc2)cc1Nc1nccc(-c2cccnc2)n1 [imatinib]
cell viability / cytotoxicity against HEKa (in words) ([2]; HEKa, 72 h): not sensitive

SMILES: CNC(=O)c1cc(Oc2ccc(NC(=O)Nc3ccc(Cl)c(C(F)(F)F)c3)cc2)cc[n+]1[O-] [sorafenib N-oxide]
intracellular accumulation / transport in HEKa (in words) (HEKa): temperature- and time-dependent transport
cell viability / cytotoxicity against HEKa (in words) ([2]; HEKa, 72 h): cytotoxicity against HEKa

SMILES: COc1cc(O)c2c(c1)/C=C/C[C@H](O)[C@H](O)C(=O)/C=C\C[C@H](C)OC2=O [(5z)-7-oxozeaenol]
cell viability / cytotoxicity against HEKa (in words) ([2]; HEKa, 72 h): dose-dependently reduced cell viability

SMILES: CCCN(CCC)S(=O)(=O)c1ccc(C(=O)O)cc1 [probenecid]
influence of probenecid on cytotoxic effects of sorafenib [3]: did not antagonize the cytotoxic effects of sorafenib
sensitivity of sorafenib uptake to inhibitor [1]: sensitivity of sorafenib uptake
sensitivity of sorafenib accumulation to probenecid [4]: sensitive to probenecid

area under the plasma concentration-time curve (mean ± SEM) [5]: 32500 ± 10900 ng·h/mL
intracellular accumulation / transport in HEKa (in words) (HEKa): highly accumulates
Km (HEKa; read-out: Michaelis-Menten constant (Km) of uptake, HEKa uptake): 7 µM
hair growth one week after depilation ([7]; sorafenib 60 mg/kg): hair growth was delayed
SMILES: CNC(=O)c1cc(Oc2ccc(NC(=O)Nc3ccc(Cl)c(C(F)(F)F)c3)cc2)ccn1 [sorafenib]
permeability (in words) [6]: poorly permeable
maximum velocity (Vmax) of uptake (HEKa; HEKa uptake): 20,900 pmol/5min/mg protein
hair follicle histology (day 14, H&E) ([7]; sorafenib 60 mg/kg): reduced melanin and a gross disruption in morphology
hair growth and pigmentation at two weeks ([7]; sorafenib 60 mg/kg or imatinib 100 mg/kg): hair was less dense and lacked pigmentation

SMILES: COc1cc(CC(=O)O)ccc1O [homovanillic acid]
sensitivity of sorafenib uptake to inhibitor [1]: sensitivity of sorafenib uptake

From article PMC4713045 (Cancer research, 2015)
